The numbers were not newly measured in US20260232690A1, “Treatment of the Chronic Effects of Brain Injury Using Rho Kinase Inhibitors” (WOOLSEY PHARMACEUTICALS, INC., priority 2023, published 2026), which cites them from elsewhere.

This data set has as its system salt-loaded hypertensive stroke-prone rats.

For `Cl.O=S(=O)(c1cccc2cnccc12)N1CCCNCC1` [Fasudil, 5-(1,4-Diazepane-1-sulfonyl) isoquinoline], the nephrosclerosis entry is “attenuate nephrosclerosis” and the survival entry was “improve survival”.
